± gives the expanded uncertainty stated by the source.
How the values were obtained:
[1] = for viscosity / mass density: 101.33 kPa, Liquid
[2] = refractive index (Na D-line) (dimensionless); conditions: 101.33 kPa, Liquid

SMILES	viscosity ([1]; 288.2 K) [mPa·s]	surface tension liquid-gas ([1]; 298.15 K) [mN/m]	mass density ([1]; 298.15 K) [kg/m3]	viscosity ([1]; 298.2 K) [mPa·s]	surface tension liquid-gas ([1]; 308.15 K) [mN/m]	mass density ([1]; 308.15 K) [kg/m3]	viscosity ([1]; 308.2 K) [mPa·s]	surface tension liquid-gas ([1]; 318.15 K) [mN/m]	mass density ([1]; 318.15 K) [kg/m3]	viscosity ([1]; 318.2 K) [mPa·s]	surface tension liquid-gas ([1]; 328.15 K) [mN/m]	mass density ([1]; 328.15 K) [kg/m3]	viscosity ([1]; 328.2 K) [mPa·s]	surface tension liquid-gas ([1]; 338.15 K) [mN/m]	mass density ([1]; 338.15 K) [kg/m3]	mass density ([1]; 348.15 K) [kg/m3]	mass density ([1]; 358.15 K) [kg/m3]	refractive index ([2]; 302.95 K)	refractive index ([2]; 307.75 K)	refractive index ([2]; 313.15 K)	also measured
CCCCCC[n+]1ccn(C)c1.O=S(=O)([N-]S(=O)(=O)C(F)(F)F)C(F)(F)F	97 ± 24	32.5 ± 1.4	1372.13 ± 2.5	68 ± 24	31.6 ± 1.4	1363.17 ± 2.5	46	30.5 ± 1.4	1354.23 ± 2.4	32	29.7 ± 1.4	1344.94 ± 2.4	24	28.6 ± 1.3	1335.86 ± 2.3	1326.91 ± 2.3	1318.16 ± 2.2	1.42958 ± 0.0013	1.42844 ± 0.0013	1.42737 ± 0.0013	refractive index ([2]; 318.05 K): 1.42649 ± 0.0013; refractive index ([2]; 322.95 K): 1.42578 ± 0.0013; refractive index ([2]; 328.05 K): 1.42484 ± 0.0013; refractive index ([2]; 332.95 K): 1.42376 ± 0.0013
CCCCCCn1cc[n+](C)c1.F[P-](F)(F)(F)(F)F [1-hexyl-3-methylimidazolium hexafluorophosphate]	1018 ± 210	42.1 ± 2	1293.41 ± 2.1	607 ± 100	40.7 ± 2	1285.78 ± 2.1	345 ± 48	39.4 ± 1.9	1277.92 ± 2	215 ± 31	38 ± 1.9	1269.88 ± 2	152 ± 26	36.6 ± 1.8	1262.13 ± 1.9	1254.36 ± 1.9	1246.81 ± 1.9	1.41694 ± 0.0013	1.41631 ± 0.0013	1.41531 ± 0.0013	viscosity ([1]; 338.2 K): 113 ± 24 mPa·s; viscosity ([1]; 348.2 K): 87 ± 24 mPa·s; refractive index ([2]; 318.05 K): 1.41479 ± 0.0013; refractive index ([2]; 322.95 K): 1.41362 ± 0.0013; refractive index ([2]; 328.05 K): 1.41307 ± 0.0013; refractive index ([2]; 332.95 K): 1.41231 ± 0.0013
CCCCCCn1cc[n+](C)c1.F[B-](F)(F)F [1-hexyl-3-methylimidazolium tetrafluoroborate]	141 ± 25	36.8 ± 1.5	1145.32 ± 1.3	102 ± 24	35.6 ± 1.5	1138.51 ± 1.3	69 ± 24	34.2 ± 1.5	1131.67 ± 1.3	43	33 ± 1.4	1124.89 ± 1.2	30	32.7 ± 1.4	1118.16 ± 1.2	1111.47 ± 1.1	1104.84 ± 1.1	1.42672 ± 0.0013	1.42613 ± 0.0013	1.42539 ± 0.0013	viscosity ([1]; 338.2 K): 21 mPa·s; refractive index ([2]; 318.05 K): 1.42443 ± 0.0013; refractive index ([2]; 322.95 K): 1.42346 ± 0.0013; refractive index ([2]; 328.05 K): 1.42232 ± 0.0013; refractive index ([2]; 332.95 K): 1.42146 ± 0.0013

Reference: the NIST ThermoML archive (doi:10.1016/j.jct.2008.04.016)
